Each structure is given as a SMILES string.

In one data set the target is T1, Igf2bp1 RRM12 di-domain (Homo sapiens, UniProt Q9NZI8).
T1 construct: Human Igf2bp1 di-domains RRM12 (M1-P188) and KH34 (P387-A574); 6xHis (N, cleaved yes); made in house; host or cells: E. coli BL21(DE3)
Nature of the data set: MST, Igf2bp1 RRM12 di-domain. As to conditions: read-out: KD of binding to RRM12. How it is done: (§1) Recombinant full-length Igf2bp1 protein was labelled with RED-tris-NTA dye using a Monolith NT His-Tag Labelling Kit (NanoTemper) while RRM12, KH12 and KH34 di-domain peptides were labelled using the Protein Labelling Kit RED NHS 2nd generation (NanoTemper). Labelled proteins were spun at 15,000 g for 5 min to eliminate aggregates. All samples were 2X labelled protein mix of Igf2bp1 (200 nM) in PBST and were combined (1:1) with serial dilutions of compound or Kras6 RNA in binding buffer (10mMTris pH = 7.5, 100 mM NaCl, 0.1 mM EDTA, 0.06% IPEGAL, 0.02 μg/μL tRNA, 2 mM DTT, 0.1 μg/μL heparin) in final volume of 20 μL, room temperature for 15 min. Samples were then loaded into standard capillaries (NanoTemper) and read in the Monolith NT.115 scanner (NanoTemper) using the red filter with reading conditions of 95% LED power and 40% MST power, 5 sec fluorescence before, 30 sec MST on, 5 sec fluorescence after and 25 sec delay between samples. Results were analysed using the MO Control software (NanoTemper) for curve fitting to KD.
(§2) The open reading frame of Igf2bps were cloned into the pET-21(d) plasmid (Novagen) between the Nco1 and Xho1 sites, as previously described. […]

Data set [1] deals with Igf2bp1-luciferase reporter fusions in RKO cells. Kind of data set: Split-luciferase assay (Igf2bp1 dimerization) in RKO cells. The class given is cell-based. As to conditions: 50 μM 7773. As for the experimental part:
Vectors expressing different fragments of split luciferase reporters with flexible linker were procured from Addgene (catalogue # 58786, 58787, 58788 and 58789). The vectors were digested with EcoRI and XhoI. EcoRI and XhoI restriction enzyme sites were added to 5′ and 3′ ends of the coding region of IGF2BP1, respectively, using PCR. We constructed four split luciferase reporter vectors by cloning IGF2BP1 in different orientations with the luciferase fragments . Primers used for the amplification of IGF2BP1 were: […]
The RKO cells were seeded in DMEM with 10% calf serum 24 hrs prior to the transfection. Transfection was done using Lipofectamine 2000 with reporter plasmids and Renilla-luciferase expressing vector (as internal control). After 24 hrs, cells were lysed using passive lysis buffer (Promega catalogue # E1941). The lysates were cleared by centrifugation and its 20 μL volume was mixed with 100 μL of luciferase substrate solution for luminescence recording which was followed by addition of 100 μL of Stop-glo solution (Promega catalogue # E1910) with an additional luminescence reading. Both readings were detected by using GloMax 20/20 Luminometer (Promega), and the final value for each sample was the ratio of their two respective readings. […]

The next data set concerns H1299 cells. Nature of the data set: Wound healing (cell migration) assay, H1299. The format is cell-based, human. As for the experimental part:
(§3) Cells were seeded in 96 IncuCyte® ImageLock plates (20X10^3 cells per well) for 24 hours, to a near confluency of 95%, before the addition of increasing concentrations of compound. After a further 24 hours, wells were scratched using the IncuCyte® 96-well WoundMaker Tool, and the cells cultured for an additional 48 hours using the IncuCyte® S3 Live-Cell Analysis System (Essen BioScience). The plate was imaged at increments of 120 minutes for a period of 48 hours, and then analysed for relative wound healing.

Data set [2] has as its system wild-type luciferase in RKO cells. Nature of the data set: Control (wild-type) luciferase in RKO cells. As to conditions: 50 μM 7773. The format is cell-based. As for the experimental part: The RKO cells were seeded in DMEM with 10% calf serum 24 hrs prior to the transfection. Transfection was done using Lipofectamine 2000 with reporter plasmids and Renilla-luciferase expressing vector (as internal control). After 24 hrs, cells were lysed using passive lysis buffer (Promega catalogue # E1941). The lysates were cleared by centrifugation and its 20 μL volume was mixed with 100 μL of luciferase substrate solution for luminescence recording which was followed by addition of 100 μL of Stop-glo solution (Promega catalogue # E1910) with an additional luminescence reading. Both readings were detected by using GloMax 20/20 Luminometer (Promega), and the final value for each sample was the ratio of their two respective readings. To test the effects of 7773, transfected cells with reporter plasmids were washed with PBS after 24 hrs of transfection and incubated with medium containing 7773.

The target of a further data set is T2, Igf2bp2 (Homo sapiens, UniProt Q9Y6M1).
T2 construct: made in house
Nature of the data set: MST, Igf2bp2. The class given is binding.

Data set [3] relates to LKR-M cells overexpressing human Igf2bp1-GFP. Kind of data set: Wound healing assay, LKR-M cells expressing human Igf2bp1-GFP. As to conditions: 20 μM 7773 vs DMSO. The format is cell-based, mouse. As for the experimental part:
as §3

Data set [4] has as its system ES2 cells. Nature of the data set: Wound healing (cell migration) assay, ES2. The format is cell-based, human. As for the experimental part:
as §3

Data set [5] deals with ES2 cells. Kind of data set: Cell proliferation assay (Incucyte), ES2. The format is cell-based, human. As to conditions: ES2, up to 20 μM. As for the experimental part:
ES2, H1299 and HEK293 cells were seeded in a 96 well plate (5X10^3 cells per well) for 24 hours before adding the compound at increasing concentrations. After an additional 24 hours, the plate was incubated in an IncuCyte® S3 Live-Cell Analysis System (Essen BioScience). The wells were filmed for 72 hours, and then analysed for proliferation rate Using IncuCyte® S3 Live-Cell Analysis System (Essen BioScience)

The target in the next data set is T3, Igf2bp1 KH12 di-domain (Homo sapiens, UniProt Q9NZI8).
T3 construct: 6xHis/GST (N, cleaved yes); made in house; host or cells: E. coli BL21(DE3)
Kind of data set: MST, Igf2bp1 KH12 di-domain. The format is binding. How it is done:
as §1, §2

Data set [6] has as its system LKR-M cells expressing GFP alone. Kind of data set: Wound healing assay, LKR-M cells expressing GFP alone. The class given is cell-based, mouse. To be noted: 20 μM 7773 vs DMSO. As for the experimental part: as §3

T2 sequence (Q9Y6M1 whole entry, species assumed): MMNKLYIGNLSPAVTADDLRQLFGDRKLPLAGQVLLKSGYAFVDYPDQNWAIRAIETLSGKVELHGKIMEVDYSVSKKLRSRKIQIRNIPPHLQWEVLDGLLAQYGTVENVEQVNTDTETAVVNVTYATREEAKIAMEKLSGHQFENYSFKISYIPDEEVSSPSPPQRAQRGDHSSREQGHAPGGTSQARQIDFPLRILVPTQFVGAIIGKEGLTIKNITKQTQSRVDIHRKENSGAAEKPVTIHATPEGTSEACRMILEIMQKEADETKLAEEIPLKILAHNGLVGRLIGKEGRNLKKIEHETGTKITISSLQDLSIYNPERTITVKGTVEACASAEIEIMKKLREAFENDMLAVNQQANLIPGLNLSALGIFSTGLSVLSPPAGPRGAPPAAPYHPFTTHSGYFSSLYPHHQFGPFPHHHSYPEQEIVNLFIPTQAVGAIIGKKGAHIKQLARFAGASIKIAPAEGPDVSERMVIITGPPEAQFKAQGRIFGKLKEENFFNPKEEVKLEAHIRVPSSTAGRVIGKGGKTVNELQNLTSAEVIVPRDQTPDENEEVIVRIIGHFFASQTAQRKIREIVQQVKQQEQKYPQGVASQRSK
T3 sequence (Q9NZI8 194-369): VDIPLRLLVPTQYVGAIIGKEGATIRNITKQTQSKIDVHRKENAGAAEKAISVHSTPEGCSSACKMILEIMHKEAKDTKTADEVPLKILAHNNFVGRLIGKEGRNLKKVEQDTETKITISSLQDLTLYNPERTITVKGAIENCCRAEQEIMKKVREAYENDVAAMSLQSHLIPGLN
T1 sequence (Q9NZI8 1-188): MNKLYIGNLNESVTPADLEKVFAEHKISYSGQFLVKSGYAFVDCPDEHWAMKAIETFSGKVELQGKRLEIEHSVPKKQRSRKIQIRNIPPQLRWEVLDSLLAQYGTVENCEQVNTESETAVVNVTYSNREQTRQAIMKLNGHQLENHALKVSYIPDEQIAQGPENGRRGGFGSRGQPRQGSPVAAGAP

Consider `O=C(c1ccc(Cn2cnnn2)cc1)N1CCCC(Nc2ccc3c(c2)OCO3)C1` (stereo not shown) [compound 7773], for which the Kd on Igf2bp1 RRM12 di-domain was 1500 nM; at Igf2bp2 (IGF2BP2 50nM, read-out: KD of binding to Igf2bp2), greater than 150000 nM. The “Effect on split-luciferase luminescence” value in data set [1] is recorded as “significantly reduced luminescence”. For the same compound, the Wound healing result with H1299 cells (H1299, 20 μM) is reported as “strongly inhibited”; with H1299 cells (H1299, lowest concentration 5 μM) it was “discernible inhibition”; with ES2 cells [4] (ES2, 20 μM), “strongly inhibited”; with ES2 cells [4] (ES2, lowest concentration 5 μM), “discernible inhibition”. For the same compound, in data set [2], the “Effect on activity of wild-type luciferase” value is “did not affect”. Moreover, the “Binding to Igf2bp2” value at Igf2bp2 (even at concentrations that almost saturate binding to Igf2bp1) is “did not significantly bind”. Also, the “Effect on Igf2bp1-GFP-enhanced wound healing” value in [3] is given as “significantly inhibited”. Besides, the Cell proliferation entry with ES2 cells [5] was “remarkably unaffected”. For the same compound, at Igf2bp1 KH12 di-domain, the “Binding to KH12” value is “no binding was observed”. Further, the “Effect on migration of cells expressing GFP alone” value in data set [6] was “unaffected”.

Usually Kd stands for the concentration at which binding is half-saturated.

Values taken from PMC8794255, “Small molecule inhibitor of Igf2bp1 represses Kras and a pro-oncogenic phenotype in cancer cells” (RNA Biology, 2021).
